Consider 29 compounds from patent US8729082B2, “Substituted imidazoquinoxalines” (Bayer Intellectual Property GmbH, priority 2009, dated 2014).

This experiment concerns the target T1, human kinase Mps-1 (Homo sapiens, UniProt P33981).
T1 construct: N-terminally GST-tagged human full length recombinant Mps-1 kinase; purchased Invitrogen, Karslruhe, Germany PV4071
T1 sequence (P33981 1-857): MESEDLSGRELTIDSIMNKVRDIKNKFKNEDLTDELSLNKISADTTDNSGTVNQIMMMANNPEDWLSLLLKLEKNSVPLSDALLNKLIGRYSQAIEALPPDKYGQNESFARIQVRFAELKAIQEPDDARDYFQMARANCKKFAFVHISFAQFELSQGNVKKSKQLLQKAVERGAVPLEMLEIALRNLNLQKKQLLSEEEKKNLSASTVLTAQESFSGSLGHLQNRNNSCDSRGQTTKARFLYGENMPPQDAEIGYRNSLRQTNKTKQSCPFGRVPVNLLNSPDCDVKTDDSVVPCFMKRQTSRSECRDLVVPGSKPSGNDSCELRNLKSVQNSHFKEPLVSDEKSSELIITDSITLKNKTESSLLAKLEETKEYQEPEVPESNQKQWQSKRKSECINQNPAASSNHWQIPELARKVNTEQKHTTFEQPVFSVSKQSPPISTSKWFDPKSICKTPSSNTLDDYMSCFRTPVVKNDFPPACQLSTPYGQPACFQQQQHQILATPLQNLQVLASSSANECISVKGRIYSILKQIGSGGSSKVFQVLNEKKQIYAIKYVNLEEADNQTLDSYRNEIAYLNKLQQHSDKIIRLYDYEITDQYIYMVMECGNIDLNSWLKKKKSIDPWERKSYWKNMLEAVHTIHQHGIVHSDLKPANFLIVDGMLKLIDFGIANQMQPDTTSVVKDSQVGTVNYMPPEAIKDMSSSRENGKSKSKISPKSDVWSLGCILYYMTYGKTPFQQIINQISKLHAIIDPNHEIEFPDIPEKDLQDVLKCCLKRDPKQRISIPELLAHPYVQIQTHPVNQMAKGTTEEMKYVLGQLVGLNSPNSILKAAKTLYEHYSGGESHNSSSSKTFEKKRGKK
Put plainly: Mps-1 kinase assay (HTRF). The settings on record: lowATP; mean; read-out: Mps1 lowATP mean IC50. It is filed as biochemical. In outline:
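HTRF readout: EDTA-stopped reactions incubated 1 h with europium anti-phospho(Ser/Thr) antibody and streptavidin-XLent, emission ratio 665/620 nm after 350 nm excitation. Kinase step: compound pre-bound 15 min to ~1 nM GST-Mps-1, then 60 min at 22 °C with ATP and biotin-peptide substrate; inhibition scaled between no-inhibitor (0%) and no-enzyme (100%) controls.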
With `O=C(NC1CC1)c1ccc(-c2cnc3c(NCC(O)CO)nc4ccc(F)cc4n23)cc1` (centres unmarked) [Example 2-59, N-cyclopropyl-4-{4-[(2,3-dihydroxypropyl)amino]-8-fluoroimidazo[1,2-a]quinoxalin-1-yl}benzamide], the IC50 was determined as 0.477 µM.

As for `CNC(=O)Nc1ccc(-c2cnc3c(NCCCN4CCCC4=O)nc4ccc(F)cc4n23)cc1` [Example 2-60, 1-[4-(8-fluoro-4-{[3-(2-oxopyrrolidin-1-yl)propyl]amino}imidazo[1,2-a]quinoxalin-1-yl)phenyl]-3-methylurea], the IC50 stood at 12.8 µM.

On to `CNC(=O)Nc1ccc(-c2cnc3c(NCCOC)nc4ccc(F)cc4n23)cc1` [Example 2-61, 1-(4-{8-fluoro-4-[(2-methoxyethyl)amino]imidazo[1,2-a]quinoxalin-1-yl}phenyl)-3-methylurea], for which the IC50 stood at 7.22 µM.

With `CNC(=O)Nc1ccc(-c2cnc3c(NCc4ccccc4F)nc4ccc(F)cc4n23)cc1` [Example 2-62, 1-(4-{8-fluoro-4-[(2-fluorobenzyl)amino]imidazo[1,2-a]quinoxalin-1-yl}phenyl)-3-methylurea], the IC50 was 17.6 µM.

For the compound `CNC(=O)Nc1ccc(-c2cnc3c(NCCCCO)nc4ccc(F)cc4n23)cc1` [Example 2-63, 1-(4-{8-fluoro-4-[(4-hydroxybutyl)amino]imidazo[1,2-a]quinoxalin-1-yl}phenyl)-3-methylurea], the IC50 was 1.63 µM.

Regarding `CNC(=O)Nc1ccc(-c2cnc3c(NCC(F)(F)F)nc4ccc(F)cc4n23)cc1` [Example 2-64, 1-(4-{8-fluoro-4-[(2,2,2-trifluoroethyl)amino]imidazo[1,2-a]quinoxalin-1-yl}phenyl)-3-methylurea], the IC50 was determined as 6.7 µM.

As for `CNC(=O)Nc1ccc(-c2cnc3c(NCCCO)nc4ccc(F)cc4n23)cc1` [Example 2-65, 1-(4-{8-fluoro-4-[(3-hydroxypropyl)amino]imidazo[1,2-a]quinoxalin-1-yl}phenyl)-3-methylurea], the IC50 came to 5.42 µM.

Turning to `CNC(=O)Nc1ccc(-c2cnc3c(NCCNC(C)=O)nc4ccc(F)cc4n23)cc1` [Example 2-66, N-{2-[(8-fluoro-1-{4-[(methylcarbamoyl)amino]phenyl}imidazo[1,2-a]quinoxalin-4-yl)amino]ethyl}acetamide], the IC50 came out at 11.8 µM.

Consider `CNC(=O)Nc1ccc(-c2cnc3c(NCCCn4ccnc4)nc4ccc(F)cc4n23)cc1` [Example 2-67, 1-[4-(8-fluoro-4-{[3-(1H-imidazol-1-yl)propyl]amino}imidazo[1,2-a]quinoxalin-1-yl)phenyl]-3-methylurea], for which the IC50 was 3.13 µM.

In the case of `CNC(=O)Nc1ccc(-c2cnc3c(NCc4cccnc4)nc4ccc(F)cc4n23)cc1` [Example 2-68, 1-(4-{8-fluoro-4-[(pyridin-3-ylmethyl)amino]imidazo[1,2-a]quinoxalin-1-yl}phenyl)-3-methylurea], the IC50 stood at 2.97 µM.

On to `CNC(=O)Nc1ccc(-c2cnc3c(NCc4ccncc4)nc4ccc(F)cc4n23)cc1` [Example 2-69, 1-(4-{8-fluoro-4-[(pyridin-4-ylmethyl)amino]imidazo[1,2-a]quinoxalin-1-yl}phenyl)-3-methylurea], for which the IC50 turned out to be 3.7 µM.

As for `CNC(=O)Nc1ccc(-c2cnc3c(NCc4ccco4)nc4ccc(F)cc4n23)cc1` [Example 2-70, 1-(4-{8-fluoro-4-[(furan-2-ylmethyl)amino]imidazo[1,2-a]quinoxalin-1-yl}phenyl)-3-methylurea], the IC50 stood at 5.08 µM.

On to `CNC(=O)Nc1ccc(-c2cnc3c(NCCCOC)nc4ccc(F)cc4n23)cc1` [Example 2-71, 1-(4-{8-fluoro-4-[(3-methoxypropyl)amino]imidazo[1,2-a]quinoxalin-1-yl}phenyl)-3-methylurea], for which the IC50 was determined as 4.95 µM.

Consider `CNC(=O)Nc1ccc(-c2cnc3c(NCc4cnn(C)c4)nc4ccc(F)cc4n23)cc1` [Example 2-72, 1-[4-(8-fluoro-4-{[(1-methyl-1H-pyrazol-4-yl)methyl]amino}imidazo[1,2-a]quinoxalin-1-yl)phenyl]-3-methylurea], for which the IC50 was determined as 2.49 µM.

As to `CNC(=O)Nc1ccc(-c2cnc3c(NCCS(N)(=O)=O)nc4ccc(F)cc4n23)cc1` [Example 2-73, 2-[(8-fluoro-1-{4-[(methylcarbamoyl)amino]phenyl}imidazo[1,2-a]quinoxalin-4-yl)amino]ethanesulfonamide], the IC50 came to 9.91 µM.

For the compound `CNC(=O)Nc1ccc(-c2cnc3c(NCC(O)CO)nc4ccc(F)cc4n23)cc1` (centres unmarked) [Example 2-74, 1-(4-{4-[(2,3-dihydroxypropyl)amino]-8-fluoroimidazo[1,2-a]quinoxalin-1-yl}phenyl)-3-methylurea], the IC50 came to 10.1 µM.

Consider `CCCNc1nc2ccc(F)cc2n2c(-c3ccc(C(=O)NC4CC4)c(Cl)c3)cnc12` [Example 2-75, 2-chloro-N-cyclopropyl-4-[8-fluoro-4-(propylamino)imidazo[1,2-a]quinoxalin-1-yl]benzamide], for which the IC50 was 1.08 µM.

With `O=C(NC1CC1)c1ccc(-c2cnc3c(NCCCN4CCOCC4)nc4ccc(F)cc4n23)cc1Cl` [Example 2-76, 2-chloro-N-cyclopropyl-4-(8-fluoro-4-{[3-(morpholin-4-yl)propyl]amino}imidazo[1,2-a]quinoxalin-1-yl)benzamide], the IC50 was found to be 10.9 µM.

Turning to `O=C(NC1CC1)c1ccc(-c2cnc3c(NCCCN4CCCC4=O)nc4ccc(F)cc4n23)cc1Cl` [Example 2-77, 2-chloro-N-cyclopropyl-4-(8-fluoro-4-{[3-(2-oxopyrrolidin-1-yl)propyl]amino}imidazo[1,2-a]quinoxalin-1-yl)benzamide], the IC50 was determined as 10.1 µM.

For the compound `COCCNc1nc2ccc(F)cc2n2c(-c3ccc(C(=O)NC4CC4)c(Cl)c3)cnc12` [Example 2-78, 2-chloro-N-cyclopropyl-4-{8-fluoro-4-[(2-methoxyethyl)amino]imidazo[1,2-a]quinoxalin-1-yl}benzamide], the IC50 worked out at 6.7 µM.

Take `O=C(NC1CC1)c1ccc(-c2cnc3c(NCCCCO)nc4ccc(F)cc4n23)cc1Cl` [Example 2-79, 2-chloro-N-cyclopropyl-4-{8-fluoro-4-[(4-hydroxybutyl)amino[imidazo]1,2-a]quinoxalin-1-yl}benzamide]: the IC50 turned out to be 1.33 µM.

As for `O=C(NC1CC1)c1ccc(-c2cnc3c(NCCCO)nc4ccc(F)cc4n23)cc1Cl` [Example 2-80, 2-chloro-N-cyclopropyl-4-{8-fluoro-4-[(3-hydroxypropyl)amino]imidazo[1,2-a]quinoxalin-1-yl}benzamide], the IC50 turned out to be 3.04 µM.

For `O=C(NC1CC1)c1ccc(-c2cnc3c(NCc4cccnc4)nc4ccc(F)cc4n23)cc1Cl` [Example 2-81, 2-chloro-N-cyclopropyl-4-{8-fluoro-4-[(pyridin-3-ylmethyl)amino]imidazo[1,2-a]quinoxalin-1-yl}benzamide], the IC50 came out at 1.42 µM.

As for `O=C(NC1CC1)c1ccc(-c2cnc3c(NCc4ccncc4)nc4ccc(F)cc4n23)cc1Cl` [Example 2-82, 2-chloro-N-cyclopropyl-4-{8-fluoro-4-[(pyridin-4-ylmethyl)amino]imidazo[1,2-a]quinoxalin-1-yl}benzamide], the IC50 is 1.09 µM.

For `COCCCNc1nc2ccc(F)cc2n2c(-c3ccc(C(=O)NC4CC4)c(Cl)c3)cnc12` [Example 2-83, 2-chloro-N-cyclopropyl-4-{8-fluoro-4-[(3-methoxypropyl)amino]imidazo[1,2-a]quinoxalin-1-yl}benzamide], the IC50 was found to be 6.7 µM.

For `CC(C)(C)OC(=O)NCCCNc1nc2ccc(F)cc2n2c(-c3ccc(C(=O)NC4CC4)c(Cl)c3)cnc12` [Example 2-84, tert-butyl [3-({1-[3-chloro-4-(cyclopropylcarbamoyl)phenyl]-8-fluoroimidazo[1,2-a]quinoxalin-4-yl}amino)propyl]carbamate], the IC50 stood at 2.88 µM.

`Cn1nccc1CNc1nc2ccc(F)cc2n2c(-c3ccc(C(=O)NC4CC4)c(Cl)c3)cnc12` [Example 2-85, 2-chloro-N-cyclopropyl-4-(8-fluoro-4-{[(1-methyl-1H-pyrazol-5-yl)methyl]amino}imidazo[1,2-a]quinoxalin-1-yl)benzamide]: the IC50 stood at 0.761 µM.

As to `Cn1cc(CNc2nc3ccc(F)cc3n3c(-c4ccc(C(=O)NC5CC5)c(Cl)c4)cnc23)cn1` [Example 2-86, 2-chloro-N-cyclopropyl-4-(8-fluoro-4-{[(1-methyl-1H-pyrazol-4-yl)methyl]amino}imidazo[1,2-a]quinoxalin-1-yl)benzamide], the IC50 stood at 1.64 µM.

Regarding `CCCNc1nc2cc(F)c(F)cc2n2c(-c3ccc(C(=O)NC4CC4)cc3)cnc12` [Example 2-88, N-cyclopropyl-4-[7,8-difluoro-4-(propylamino)imidazo[1,2-a]quinoxalin-1-yl]benzamide], the IC50 was 0.0286 µM.
